In patent US20070128217A1 (priority 2003, published 2007):

Experiments:
[1] = system: antibodies in sera from SARS patients (sera 1a, 1b, 2, 6, 37, 62, London, SARS-yellow, SARS-green); format: binding, human; parameters: Binding of serum 6 to linear peptides of protein X1 of SARS-CoV Urbani / Binding of serum 37 to linear peptides of protein X1 of SARS-CoV Urbani / Binding of serum 6 to looped/cyclic peptide (PEPSCAN-ELISA) / Binding of serum 37 to looped/cyclic peptide (PEPSCAN-ELISA) / Binding of serum 37 to looped/cyclic peptides of protein X1 of SARS-CoV Urbani / Binding of serum 6 to linear peptides of protein X2 / Binding of serum 37 to linear peptides of protein X2 / Binding of serum 37 to looped/cyclic peptides of protein X2 of SARS-CoV Urbani / Binding of serum 6 to linear peptides of protein M of SARS-CoV Urbani / Binding of serum 37 to linear peptides of protein M of SARS-CoV Urbani / Binding of serum 6 to looped/cyclic peptides of protein M of SARS-CoV Urbani / Binding of serum 37 to looped/cyclic peptides of protein M of SARS-CoV Urbani / Binding of serum 6 to linear peptides of protein X3 of SARS-CoV Urbani / Binding of serum 37 to linear peptides of protein X3 of SARS-CoV Urbani / Binding of serum 37 to looped/cyclic peptides of protein X3 of SARS-CoV Urbani / Binding of serum 6 to linear peptides of protein X4 of SARS-CoV Urbani / Binding of serum 37 to linear peptides of protein X4 of SARS-CoV Urbani / Binding of serum 37 to looped/cyclic peptides of protein X4 of SARS-CoV Urbani / Binding of serum 6 to linear peptides of protein X5 of SARS-CoV Urbani / Binding of serum 37 to linear peptides of protein X5 of SARS-CoV Urbani / Binding of serum 37 to looped/cyclic peptides of protein X5 of SARS-CoV Urbani / Binding of serum 6 to linear peptides of protein N of SARS-CoV Urbani / Binding of serum 37 to linear peptides of protein N of SARS-CoV Urbani / Binding of serum 6 to linear peptide (PEPSCAN-ELISA) / Binding of serum 1a to looped/cyclic peptides of protein N of SARS-CoV Urbani / Binding of serum 1b to looped/cyclic peptides of protein N of SARS-CoV Urbani / Binding of serum 2 to looped/cyclic peptides of protein N of SARS-CoV Urbani / Binding of serum 6 to looped/cyclic peptides of protein N of SARS-CoV Urbani / Binding of serum 37 to looped/cyclic peptides of protein N of SARS-CoV Urbani / Binding of serum 62 to looped/cyclic peptides of protein N of SARS-CoV Urbani / Binding of serum London to looped/cyclic peptides of protein N of SARS-CoV Urbani / Binding of serum SARS-green to looped/cyclic peptides of protein N of SARS-CoV Urbani: unit not given here
[2] = system: control sera (pooled serum of ten healthy LUMC hospital workers; commercial negative donor pooled serum from the Dutch bloodbank); format: binding, human; parameters: Binding of Control serum LUMC to linear peptides / Binding of Control serum Blood-bank to linear peptides / Binding of Control serum LUMC to looped peptides / Binding of Control Serum Blood-Bank to Looped peptides / Binding of Control serum LUMC to linear peptides of the protein M of SARS-CoV Urbani / Binding of Control serum Blood-bank to linear peptides of the protein M of SARS-CoV Urbani / Binding of Control serum LUMC to looped peptides of the protein M of SARS-CoV Urbani / Binding of Control Serum Blood-Bank to Looped peptides of the protein M of SARS-CoV Urbani: unit not given here
[3] = system: rabbit serum obtained by immunizing a rabbit with the SARS-CoV strain Frankfurt 1; format: binding; parameters: Binding of a rabbit serum to linear peptides / Binding of a rabbit serum to looped peptides / Rabbit serum linear peptides / Rabbit serum looped peptides / Binding of a rabbit serum to linear peptides of protein N of SARS-CoV Urbani (Rabbit serum linear peptides) / Binding of a rabbit serum to looped/cyclic peptides of protein N of SARS-CoV Urbani (Rabbit serum looped peptides): unit not given here

NTYSTAWLCALGKVL
Binding of serum 1a to linear peptides of protein X5 of SARS-CoV Urbani [1]: 0.7
Binding of serum 1a to looped/cyclic peptides of protein X5 of SARS-CoV Urbani [1]: 0.4
Binding of serum 1b to linear peptides of protein X5 of SARS-CoV Urbani [1]: 0.4
Binding of serum 1b to looped/cyclic peptides of protein X5 of SARS-CoV Urbani [1]: 0.3
Binding of serum 2 to linear peptides of protein X5 of SARS-CoV Urbani [1]: 0.5
Binding of serum 2 to looped/cyclic peptides of protein X5 of SARS-CoV Urbani [1]: 0.5
Binding of serum 6 to linear peptides of protein X5 of SARS-CoV Urbani [1]: 0.6
Binding of serum 6 to looped/cyclic peptides of protein X5 of SARS-CoV Urbani [1]: 1.1
Binding of serum 37 to linear peptides of protein X5 of SARS-CoV Urbani [1]: 0.6
Binding of serum 37 to looped/cyclic peptides of protein X5 of SARS-CoV Urbani [1]: 0.5
Binding of serum 62 to linear peptides of protein X5 of SARS-CoV Urbani [1]: 0.7
Binding of serum 62 to looped/cyclic peptides of protein X5 of SARS-CoV Urbani [1]: 0.6
Binding of serum London to linear peptides of protein X5 of SARS-CoV Urbani [1]: 0.6
Binding of serum London to looped/cyclic peptides of protein X5 of SARS-CoV Urbani [1]: 2.3
Binding of serum SARS-green to linear peptides of protein X5 of SARS-CoV Urbani [1]: 0.4
Binding of serum SARS-green to looped/cyclic peptides of protein X5 of SARS-CoV Urbani [1]: 0.3
Binding of serum SARS-yellow to linear peptides of protein X5 of SARS-CoV Urbani [1]: 0.3
Binding of serum SARS-yellow to looped/cyclic peptides of protein X5 of SARS-CoV Urbani [1]: 0.6
Binding of Control Serum Blood-Bank to Looped peptides [2]: 0.4
Binding of Control serum Blood-bank to linear peptides [2]: 0.8
Binding of Control serum LUMC to linear peptides [2]: 0.4
Binding of Control serum LUMC to looped peptides [2]: 0.5
Rabbit serum linear peptides [3]: 0.6
Rabbit serum looped peptides [3]: 0.5

THFAFACADGTRHTY
Binding of serum 1a to linear peptides of protein X4 of SARS-CoV Urbani [1]: 0.7
Binding of serum 1a to looped/cyclic peptides of protein X4 of SARS-CoV Urbani [1]: 0.7
Binding of serum 1b to linear peptides of protein X4 of SARS-CoV Urbani [1]: 0.5
Binding of serum 1b to looped/cyclic peptides of protein X4 of SARS-CoV Urbani [1]: 0.5
Binding of serum 2 to linear peptides of protein X4 of SARS-CoV Urbani [1]: 0.5
Binding of serum 2 to looped/cyclic peptides of protein X4 of SARS-CoV Urbani [1]: 0.5
Binding of serum 6 to linear peptides of protein X4 of SARS-CoV Urbani [1]: 0.6
Binding of serum 6 to looped/cyclic peptides of protein X4 of SARS-CoV Urbani [1]: 0.5
Binding of serum 37 to linear peptides of protein X4 of SARS-CoV Urbani [1]: 0.6
Binding of serum 37 to looped/cyclic peptides of protein X4 of SARS-CoV Urbani [1]: 0.6
Binding of serum 62 to linear peptides of protein X4 of SARS-CoV Urbani [1]: 0.7
Binding of serum 62 to looped/cyclic peptides of protein X4 of SARS-CoV Urbani [1]: 0.6
Binding of serum London to linear peptides of protein X4 of SARS-CoV Urbani [1]: 0.7
Binding of serum London to looped/cyclic peptides of protein X4 of SARS-CoV Urbani [1]: 0.3
Binding of serum SARS-green to linear peptides of protein X4 of SARS-CoV Urbani [1]: 0.5
Binding of serum SARS-green to looped/cyclic peptides of protein X4 of SARS-CoV Urbani [1]: 0.4
Binding of serum SARS-yellow to linear peptides of protein X4 of SARS-CoV Urbani [1]: 0.2
Binding of serum SARS-yellow to looped/cyclic peptides of protein X4 of SARS-CoV Urbani [1]: 0.5
Binding of Control Serum Blood-Bank to Looped peptides [2]: 0.7
Binding of Control serum Blood-bank to linear peptides [2]: 0.7
Binding of Control serum LUMC to linear peptides [2]: 0.7
Binding of Control serum LUMC to looped peptides [2]: 0.7
Rabbit serum linear peptides [3]: 0.4
Rabbit serum looped peptides [3]: 0.5

LYKGFQFICNLLLLF
Binding of serum 1a to linear peptides of protein X1 of SARS-CoV Urbani [1]: 0.6
Binding of serum 1a to looped/cyclic peptide (PEPSCAN-ELISA) [1]: 0.5
Binding of serum 1b to linear peptides of protein X1 of SARS-CoV Urbani [1]: 0.5
Binding of serum 1b to looped/cyclic peptide (PEPSCAN-ELISA) [1]: 0.3
Binding of serum 2 to linear peptides of protein X1 of SARS-CoV Urbani [1]: 0.5
Binding of serum 2 to looped/cyclic peptide (PEPSCAN-ELISA) [1]: 0.3
Binding of serum 6 to linear peptides of protein X1 of SARS-CoV Urbani [1]: 0.4
Binding of serum 6 to looped/cyclic peptide (PEPSCAN-ELISA) [1]: 1.5
Binding of serum 37 to linear peptides of protein X1 of SARS-CoV Urbani [1]: 0.5
Binding of serum 37 to looped/cyclic peptide (PEPSCAN-ELISA) [1]: 0.4
Binding of serum 62 to linear peptides of protein X1 of SARS-CoV Urbani [1]: 0.4
Binding of serum 62 to looped/cyclic peptide (PEPSCAN-ELISA) [1]: 0.5
Binding of serum London to linear peptides of protein X1 of SARS-CoV Urbani [1]: 0.2
Binding of serum London to looped/cyclic peptide (PEPSCAN-ELISA) [1]: 1.7
Binding of serum SARS-green to linear peptides of protein X1 of SARS-CoV Urbani [1]: 0.2
Binding of serum SARS-green to looped/cyclic peptide (PEPSCAN-ELISA) [1]: 0.2
Binding of serum SARS-yellow to linear peptides of protein X1 of SARS-CoV Urbani [1]: 0.4
Binding of serum SARS-yellow to looped/cyclic peptide (PEPSCAN-ELISA) [1]: 0.3
Binding of Control Serum Blood-Bank to Looped peptides [2]: 0.4
Binding of Control serum Blood-bank to linear peptides [2]: 0.5
Binding of Control serum LUMC to linear peptides [2]: 0.5
Binding of Control serum LUMC to looped peptides [2]: 0.6
Binding of a rabbit serum to linear peptides [3]: 0.2
Binding of a rabbit serum to looped peptides [3]: 0.3

VVILRIGTQVLKTMS
Binding of serum 1a to linear peptides of protein X2 [1]: 0.6
Binding of serum 1a to looped/cyclic peptides of protein X2 of SARS-CoV Urbani [1]: 0.4
Binding of serum 1b to linear peptides of protein X2 [1]: 0.5
Binding of serum 1b to looped/cyclic peptides of protein X2 of SARS-CoV Urbani [1]: 0.4
Binding of serum 2 to linear peptides of protein X2 [1]: 0.5
Binding of serum 2 to looped/cyclic peptides of protein X2 of SARS-CoV Urbani [1]: 0.3
Binding of serum 6 to linear peptides of protein X2 [1]: 0.5
Binding of serum 6 to looped/cyclic peptides of protein X2 of SARS-CoV Urbani [1]: 0.3
Binding of serum 37 to linear peptides of protein X2 [1]: 0.6
Binding of serum 37 to looped/cyclic peptides of protein X2 of SARS-CoV Urbani [1]: 0.3
Binding of serum 62 to linear peptides of protein X2 [1]: 0.6
Binding of serum 62 to looped/cyclic peptides of protein X2 of SARS-CoV Urbani [1]: 0.4
Binding of serum London to linear peptides of protein X2 [1]: 0.4
Binding of serum London to looped/cyclic peptides of protein X2 of SARS-CoV Urbani [1]: 0.2
Binding of serum SARS-green to linear peptides of protein X2 [1]: 0.5
Binding of serum SARS-green to looped/cyclic peptides of protein X2 of SARS-CoV Urbani [1]: 0.3
Binding of serum SARS-yellow to linear peptides of protein X2 [1]: 0.6
Binding of serum SARS-yellow to looped/cyclic peptides of protein X2 of SARS-CoV Urbani [1]: 0.4
Binding of Control Serum Blood-Bank to Looped peptides [2]: 0.3
Binding of Control serum Blood-bank to linear peptides [2]: 0.7
Binding of Control serum LUMC to linear peptides [2]: 0.5
Binding of Control serum LUMC to looped peptides [2]: 0.3
Binding of a rabbit serum to linear peptides [3]: 0.4
Binding of a rabbit serum to looped peptides [3]: 0.4

ESTQITTDTGIENAT
Binding of serum 1a to linear peptides of protein X1 of SARS-CoV Urbani [1]: 0.6
Binding of serum 1a to looped/cyclic peptides of protein X1 of SARS-CoV Urbani [1]: 0.4
Binding of serum 1b to linear peptides of protein X1 of SARS-CoV Urbani [1]: 0.4
Binding of serum 1b to looped/cyclic peptides of protein X1 of SARS-CoV Urbani [1]: 0.2
Binding of serum 2 to linear peptides of protein X1 of SARS-CoV Urbani [1]: 0.3
Binding of serum 2 to looped/cyclic peptides of protein X1 of SARS-CoV Urbani [1]: 0.1
Binding of serum 6 to linear peptides of protein X1 of SARS-CoV Urbani [1]: 0.4
Binding of serum 6 to looped/cyclic peptides of protein X1 of SARS-CoV Urbani [1]: 0.2
Binding of serum 37 to linear peptides of protein X1 of SARS-CoV Urbani [1]: 0.5
Binding of serum 37 to looped/cyclic peptides of protein X1 of SARS-CoV Urbani [1]: 0.3
Binding of serum 62 to linear peptides of protein X1 of SARS-CoV Urbani [1]: 0.5
Binding of serum 62 to looped/cyclic peptides of protein X1 of SARS-CoV Urbani [1]: 0.3
Binding of serum London to linear peptides of protein X1 of SARS-CoV Urbani [1]: 0.2
Binding of serum London to looped/cyclic peptides of protein X1 of SARS-CoV Urbani [1]: 0.2
Binding of serum SARS-green to linear peptides of protein X1 of SARS-CoV Urbani [1]: 0.2
Binding of serum SARS-green to looped/cyclic peptides of protein X1 of SARS-CoV Urbani [1]: 0.1
Binding of serum SARS-yellow to linear peptides of protein X1 of SARS-CoV Urbani [1]: 0.1
Binding of serum SARS-yellow to looped/cyclic peptides of protein X1 of SARS-CoV Urbani [1]: 0.3
Binding of Control Serum Blood-Bank to Looped peptides [2]: 0.4
Binding of Control serum Blood-bank to linear peptides [2]: 0.4
Binding of Control serum LUMC to linear peptides [2]: 0.5
Binding of Control serum LUMC to looped peptides [2]: 0.4
Binding of a rabbit serum to linear peptides [3]: 0.1
Binding of a rabbit serum to looped peptides [3]: 0.5
